# Laboratory results published in US12221422B2, “Compounds and their use for the treatment of alpha1-antitrypsin deficiency” (CENTESSA PHARMACEUTICALS (UK) LIMITED, priority 2018, dated 2025).
# Key:
# Aqueous solubility = assay type: physicochemical; conditions: thermodynamic from solid; water, shaken for 5 minutes until clear solution
# Method: Compounds of the invention were shaken for 5 minutes with increasing amounts of water until a clear solution had formed. Using this method the solubility of N,N-dimethyl-4-((6-oxopyrimidin-1(6H)-yl)methyl)benzamide was greater than 100 mg/ml.
# human Siiyama A1AT = target: T1, human Siiyama A1AT (Homo sapiens, UniProt P01009, S77F); experiment: A1AT cell secretion assay using HEK-Siiyama cells (ELISA); assay type: cell-based; conditions: 1 or 10 μM, 48 h
# T1 construct: expressed in transfected cells; host or cells: HEK-Siiyama (HEK-EBNA cells containing the Siiyama A1AT plasmid)
# T1 sequence (P01009 25-418 S77F): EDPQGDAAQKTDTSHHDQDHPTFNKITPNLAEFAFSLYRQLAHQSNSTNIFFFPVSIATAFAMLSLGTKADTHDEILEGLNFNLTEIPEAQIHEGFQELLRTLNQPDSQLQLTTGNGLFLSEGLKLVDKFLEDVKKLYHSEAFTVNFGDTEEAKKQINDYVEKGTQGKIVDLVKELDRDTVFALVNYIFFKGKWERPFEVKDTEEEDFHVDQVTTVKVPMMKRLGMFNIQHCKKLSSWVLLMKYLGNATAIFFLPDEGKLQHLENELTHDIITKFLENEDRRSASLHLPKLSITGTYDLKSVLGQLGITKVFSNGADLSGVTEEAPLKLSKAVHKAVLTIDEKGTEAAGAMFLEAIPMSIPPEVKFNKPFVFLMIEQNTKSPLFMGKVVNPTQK
# Method: HEK-Siiyama cells, a human embryonic kidney cell line stably transfected with the human Siiyama A1AT gene, were plated into 96 well plates (3.0×10^5 cells/ml with 200 μl of media/well) overnight at 37° C. in a humidified atmosphere containing 5% CO2. Following incubation cells were washed with 200 μl serum-free media three times and media was replaced with serum-free media containing either vehicle, 10 μM suberanilohydroxamic acid (SAHA) or a compound of the invention (at 1 or 10 μM) in replicates of eight for 48 h in a 37° C. incubator in a final volume of 200 μl. […]
# Briefly, a 96 well plate was coated with human A1AT capture antibody overnight at room temperature (1:180 dilution from stock, 100 μl final volume/well). […] After which, 50 μl stop solution (2M H2SO4) was added and optical density (OD) of each well was read at 450 nm with 570 nm blank subtracted from each well using a microplate reader. A 4 parameter logistic curve was constructed using GraphPad Prism 7 and A1AT concentrations were determined in each sample by interpolation from a standard curve and multiplying by the appropriate dilution factor.
# The amount of human A1AT secreted from transfected HEK-EBNA cells into the media was measured by ELISA. […]
# CYP 3A4 = target: T2, CYP 3A4 (Homo sapiens, UniProt P08684); experiment: CYP inhibition, E. coli CYPEX membranes; assay type: in vitro ADME; conditions: specific probe substrates
# T2 construct: purchased CYPEX; host or cells: E. coli
# T2 sequence (P08684 whole entry): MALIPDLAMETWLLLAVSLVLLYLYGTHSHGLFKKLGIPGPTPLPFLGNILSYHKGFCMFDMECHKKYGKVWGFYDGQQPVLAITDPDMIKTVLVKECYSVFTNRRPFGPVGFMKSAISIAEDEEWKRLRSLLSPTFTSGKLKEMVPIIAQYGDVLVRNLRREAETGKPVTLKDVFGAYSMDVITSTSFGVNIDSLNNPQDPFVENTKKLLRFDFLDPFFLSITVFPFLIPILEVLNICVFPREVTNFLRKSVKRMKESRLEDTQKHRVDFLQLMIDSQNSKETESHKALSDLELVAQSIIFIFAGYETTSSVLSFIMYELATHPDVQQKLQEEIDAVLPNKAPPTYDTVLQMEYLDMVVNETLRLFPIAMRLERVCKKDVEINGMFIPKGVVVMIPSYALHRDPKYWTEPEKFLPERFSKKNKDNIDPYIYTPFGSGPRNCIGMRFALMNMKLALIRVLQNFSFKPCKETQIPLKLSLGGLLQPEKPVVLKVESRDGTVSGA
# Method: (§1) Using E. coli CYPEX membranes in combination with specific probe substrates, the inhibition of individual CYPs by compounds of the invention using the method described in Weaver et al., 2003, Drug Metab Dispos 31:7, 955-966 was assessed.
# CYP 1A2 = target: T3, CYP 1A2 (Homo sapiens, UniProt P05177); experiment: CYP inhibition, E. coli CYPEX membranes; assay type: in vitro ADME; conditions: specific probe substrates
# T3 construct: purchased CYPEX; host or cells: E. coli
# T3 sequence (P05177 1-516): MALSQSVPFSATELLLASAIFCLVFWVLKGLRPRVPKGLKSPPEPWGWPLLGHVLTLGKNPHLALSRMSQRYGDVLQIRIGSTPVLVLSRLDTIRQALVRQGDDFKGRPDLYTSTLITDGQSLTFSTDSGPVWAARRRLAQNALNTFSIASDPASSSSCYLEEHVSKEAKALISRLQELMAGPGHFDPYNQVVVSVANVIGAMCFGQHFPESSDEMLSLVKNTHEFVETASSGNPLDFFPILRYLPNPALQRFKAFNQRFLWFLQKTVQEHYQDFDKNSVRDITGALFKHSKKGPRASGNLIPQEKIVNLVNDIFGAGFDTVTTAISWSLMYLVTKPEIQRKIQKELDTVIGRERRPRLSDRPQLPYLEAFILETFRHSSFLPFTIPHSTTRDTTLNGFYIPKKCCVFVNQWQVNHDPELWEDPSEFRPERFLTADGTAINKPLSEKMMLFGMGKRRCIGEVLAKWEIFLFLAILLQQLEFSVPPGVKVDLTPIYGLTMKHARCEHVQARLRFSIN
# Method: as §1
# CYP 2C9 = target: T4, CYP 2C9 (Homo sapiens, UniProt P11712); experiment: CYP inhibition, E. coli CYPEX membranes; assay type: in vitro ADME; conditions: specific probe substrates
# T4 construct: purchased CYPEX; host or cells: E. coli
# T4 sequence (P11712 whole entry): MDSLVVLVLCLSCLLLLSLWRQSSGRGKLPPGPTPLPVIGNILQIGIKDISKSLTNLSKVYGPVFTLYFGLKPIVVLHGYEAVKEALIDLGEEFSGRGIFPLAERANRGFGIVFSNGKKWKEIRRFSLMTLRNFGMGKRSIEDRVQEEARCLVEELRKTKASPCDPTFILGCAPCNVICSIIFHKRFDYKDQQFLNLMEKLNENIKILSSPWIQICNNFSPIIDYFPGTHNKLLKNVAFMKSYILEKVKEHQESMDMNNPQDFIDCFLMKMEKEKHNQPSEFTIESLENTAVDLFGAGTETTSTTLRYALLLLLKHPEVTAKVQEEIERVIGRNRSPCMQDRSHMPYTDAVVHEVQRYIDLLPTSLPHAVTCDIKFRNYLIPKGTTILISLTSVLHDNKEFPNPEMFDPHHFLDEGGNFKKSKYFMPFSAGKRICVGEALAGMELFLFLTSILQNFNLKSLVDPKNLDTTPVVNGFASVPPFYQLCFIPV
# Method: as §1
# CYP 2D6 = target: T5, CYP 2D6 (Homo sapiens, UniProt P10635); experiment: CYP inhibition, E. coli CYPEX membranes; assay type: in vitro ADME; conditions: specific probe substrates
# T5 construct: purchased CYPEX; host or cells: E. coli
# T5 sequence (P10635 whole entry): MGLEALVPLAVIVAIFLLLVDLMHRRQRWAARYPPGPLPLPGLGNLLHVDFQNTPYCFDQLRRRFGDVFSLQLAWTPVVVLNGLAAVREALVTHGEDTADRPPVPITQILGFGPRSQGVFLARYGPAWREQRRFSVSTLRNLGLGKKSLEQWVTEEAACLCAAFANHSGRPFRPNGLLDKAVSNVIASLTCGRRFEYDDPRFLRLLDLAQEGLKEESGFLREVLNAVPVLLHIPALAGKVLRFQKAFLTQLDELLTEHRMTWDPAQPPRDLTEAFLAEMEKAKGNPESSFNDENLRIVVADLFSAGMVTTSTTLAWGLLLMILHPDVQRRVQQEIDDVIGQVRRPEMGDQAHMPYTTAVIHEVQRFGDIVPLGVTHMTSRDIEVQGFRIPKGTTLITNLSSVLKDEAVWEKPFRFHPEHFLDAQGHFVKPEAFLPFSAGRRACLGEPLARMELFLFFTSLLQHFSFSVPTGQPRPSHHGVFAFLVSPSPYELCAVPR
# Method: as §1
# CYP 2C19 = target: T6, CYP 2C19 (Homo sapiens, UniProt P33261); experiment: CYP inhibition, E. coli CYPEX membranes; assay type: in vitro ADME; conditions: specific probe substrates
# T6 construct: purchased CYPEX; host or cells: E. coli
# T6 sequence (P33261 whole entry): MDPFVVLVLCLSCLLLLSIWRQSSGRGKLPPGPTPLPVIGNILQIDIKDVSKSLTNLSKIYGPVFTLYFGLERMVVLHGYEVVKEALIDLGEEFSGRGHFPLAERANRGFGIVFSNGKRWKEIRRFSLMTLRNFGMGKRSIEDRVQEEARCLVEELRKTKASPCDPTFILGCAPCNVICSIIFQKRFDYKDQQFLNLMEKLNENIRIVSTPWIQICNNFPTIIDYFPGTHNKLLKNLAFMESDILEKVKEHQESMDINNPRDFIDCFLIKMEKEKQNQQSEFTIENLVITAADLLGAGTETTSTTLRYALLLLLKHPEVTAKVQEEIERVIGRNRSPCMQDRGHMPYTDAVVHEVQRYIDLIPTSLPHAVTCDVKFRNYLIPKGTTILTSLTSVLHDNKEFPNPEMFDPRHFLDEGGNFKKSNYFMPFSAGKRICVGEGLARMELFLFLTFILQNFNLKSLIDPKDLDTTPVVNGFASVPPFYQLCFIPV
# Method: as §1
# [1] = Plasma protein binding, mouse plasma (rapid equilibrium dialysis); assay type: in vitro ADME; conditions: 37° C.
# Method: The extent to which compounds of the invention bound to plasma proteins such as albumin and alpha-1 acid glycoprotein within human, rat or mouse plasma was determined by rapid equilibrium dialysis. Compounds were incubated at 5 μM for 4 hours at 37° C. Plasma protein binding for N,N-dimethyl-4-((6-oxopyrimidin-1(6H)-yl)methyl)benzamide in mouse plasma was 37.3%, in rat plasma was 14.8% and in human plasma was 30.6%.
# Pharmacokinetics in mice = assay type: in vivo; conditions: male C57BI/6 mice
# Method: N,N-dimethyl-4-((6-oxopyrimidin-1(6H)-yl)methyl)benzamide was administered to male C57BI/6 mice intravenously (2 mg/kg) or orally (10 mg/kg) by gavage. Whole blood diluted with water was prepared from these dosed animals over a time course up to 24 hours post dose to allow blood concentrations of drug to be measured by UPLC-MS/MS.
# [2] = mouse, whole blood, iv 2 mg/kg or oral 10 mg/kg (route not stated), blood
smiles,measurement,setting,value
"CN(C)C(=O)c1ccc(Cn2cnccc2=O)cc1 [N,N-dimethyl-4-((6-oxopyrimidin-1(6H)-yl)methyl)benzamide]",solubility at 5 min,Aqueous solubility,> 100 mg/mL
same,secretion of Siiyama A1AT as measured by ELISA,human Siiyama A1AT,does not stimulate secretion of Siiyama A1AT
same,IC50,CYP 3A4,> 50 µM
same,IC50,CYP 1A2,> 50 µM
same,IC50,CYP 2C9,> 50 µM
same,IC50,CYP 2D6,> 50 µM
same,IC50,CYP 2C19,> 50 µM
same,"fraction unbound at 4 h, 5 μM",[1],0.627
same,"Oral Bioavailability (F, AUCINF)",Pharmacokinetics in mice; oral 10 mg/kg vs iv 2 mg/kg,73%
same,AUC,Pharmacokinetics in mice; [2],15600 ng·h/mL
same,AUC(0-inf),Pharmacokinetics in mice; [2],15600 ng·h/mL
same,half-life,"Pharmacokinetics in mice; mouse, whole blood, iv 2 mg/kg or oral 10 mg/kg, read-out: Half-life in blood (t1/2) (converted)",1.9 h
same,clearance,"Pharmacokinetics in mice; mouse, whole blood, iv 2 mg/kg or oral 10 mg/kg, read-out: Observed clearance",7.8 mL/min/kg
same,Vd,"Pharmacokinetics in mice; mouse, whole blood, iv 2 mg/kg or oral 10 mg/kg, read-out: Volume of distribution (Vz)",1.3 L/kg
same,Cmax,"Pharmacokinetics in mice; mouse, whole blood, oral 10 mg/kg, blood",9310 ng/mL
